Experimental data reported in patent US5942514A, “Quinazoline derivatives” (Zeneca Limited, priority 1995, dated 1999).

Tests used:
[1] = molecular target: T1, EGF receptor tyrosine kinase (Homo sapiens, UniProt P00533); experiment: In vitro assay: ability of a test compound to inhibit the enzyme EGF receptor tyrosine kinase (Test (a)); type: biochemical; conditions: EGF receptor tyrosine kinase from A431 cells; approximate values
T1 construct: Receptor tyrosine kinase was obtained in partially purified form from A431 cells; endogenous in cells; host or cells: A431 cells (human vulval carcinoma), Triton X-100 solubilised membrane fraction
Experimental: (a) An in vitro assay which determines the ability of a test compound to inhibit the enzyme EGF receptor tyrosine kinase.
A-431 cells were grown to confluence using Dulbecco's modified Eagle's medium (DMEM) containing 5% fetal calf serum (FCS). […] The homogenate was centrifuged at 400 g for 10 minutes at 0-4° C. The supernatant was centrifuged at 25,000 g for 30 minutes at 0-4° C. The pelleted material was suspended in 30 mM Hepes buffer at pH 7.4 containing 5% glycerol, 4 mM benzamidine and 1% Triton X-100, stirred for 1 hour at 0-4° C., and recentrifuged at 100,000 g for 1 hour at 0-4° C. The supernatant, containing solubilised receptor tyrosine kinase, was stored in liquid nitrogen.
There was thus obtained the test enzyme solution.
Equal volumes of this solution and a solution of epidermal growth factor (EGF; 20 μg/ml) were mixed.
[γ-^32 P]ATP (3000 Ci/mM, 250 μCi) was diluted to a volume of 2 ml by the addition of a solution of ATP (100 μM) in distilled water. An equal volume of a 4 mg/ml solution of the peptide […]in a mixture of 40 mM Hepes buffer at pH 7.4, 0.1% Triton X-100 and 10% glycerol was added.
The test compound/EGF mixture solution (5 μl) was added to the test enzyme solution (10 μl) and the mixture was incubated at 0-4° C. for 30 minutes. The ATP/peptide mixture (10 μl) was added and the mixture was incubated at 25° C. for 10 minutes. The phosphorylation reaction was terminated by the addition of 5% trichloroacetic acid (40 μl) and bovine serum albumin (BSA; 1 mg/ml, 5 μl). The mixture was allowed to stand at 4° C. for 30 minutes and then centrifuged. An aliquot (40 μl) of the supernatant was placed onto a strip of Whatman p 81 phosphocellulose paper. The strip was washed in 75 mM phosphoric acid (4×10 ml) and blotted dry. Radioactivity present in the filter paper was measured using a liquid scintillation counter (Sequence A). The reaction sequence was repeated in the absence of the EGF (Sequence B) and again in the absence of the test compound (Sequence C).
Receptor tyrosine kinase inhibition was calculated as follows: [formula]

KB cells = experiment: In vitro assay: inhibition of the EGF-stimulated growth of the human naso-pharyngeal cancer cell line KB (Test (b)); type: cell-based; conditions: 72 h, EGF 10 ng/ml, 3 days, MTT, approximate values
Experimental: (b) An in vitro assay which determines the ability of a test compound to inhibit the EGF-stimulated growth of the human naso-pharyngeal cancer cell line KB.
KB cells were seeded into wells at a density of 1×10^4 -1.5×10^4 cells per well and grown for 24 hours in DMEM supplemented with 5% FCS (charcoal-stripped). Cell growth was determined after incubation for 3 days by the extent of metabolism of MTT tetrazolium dye to furnish a bluish colour. Cell growth was then determined in the presence of EGF (10 ng/ml) or in the presence of EGF (10 ng/ml) and a test compound at a range of concentrations. An IC50 value could then be calculated.

T1 sequence (P00533 25-1210): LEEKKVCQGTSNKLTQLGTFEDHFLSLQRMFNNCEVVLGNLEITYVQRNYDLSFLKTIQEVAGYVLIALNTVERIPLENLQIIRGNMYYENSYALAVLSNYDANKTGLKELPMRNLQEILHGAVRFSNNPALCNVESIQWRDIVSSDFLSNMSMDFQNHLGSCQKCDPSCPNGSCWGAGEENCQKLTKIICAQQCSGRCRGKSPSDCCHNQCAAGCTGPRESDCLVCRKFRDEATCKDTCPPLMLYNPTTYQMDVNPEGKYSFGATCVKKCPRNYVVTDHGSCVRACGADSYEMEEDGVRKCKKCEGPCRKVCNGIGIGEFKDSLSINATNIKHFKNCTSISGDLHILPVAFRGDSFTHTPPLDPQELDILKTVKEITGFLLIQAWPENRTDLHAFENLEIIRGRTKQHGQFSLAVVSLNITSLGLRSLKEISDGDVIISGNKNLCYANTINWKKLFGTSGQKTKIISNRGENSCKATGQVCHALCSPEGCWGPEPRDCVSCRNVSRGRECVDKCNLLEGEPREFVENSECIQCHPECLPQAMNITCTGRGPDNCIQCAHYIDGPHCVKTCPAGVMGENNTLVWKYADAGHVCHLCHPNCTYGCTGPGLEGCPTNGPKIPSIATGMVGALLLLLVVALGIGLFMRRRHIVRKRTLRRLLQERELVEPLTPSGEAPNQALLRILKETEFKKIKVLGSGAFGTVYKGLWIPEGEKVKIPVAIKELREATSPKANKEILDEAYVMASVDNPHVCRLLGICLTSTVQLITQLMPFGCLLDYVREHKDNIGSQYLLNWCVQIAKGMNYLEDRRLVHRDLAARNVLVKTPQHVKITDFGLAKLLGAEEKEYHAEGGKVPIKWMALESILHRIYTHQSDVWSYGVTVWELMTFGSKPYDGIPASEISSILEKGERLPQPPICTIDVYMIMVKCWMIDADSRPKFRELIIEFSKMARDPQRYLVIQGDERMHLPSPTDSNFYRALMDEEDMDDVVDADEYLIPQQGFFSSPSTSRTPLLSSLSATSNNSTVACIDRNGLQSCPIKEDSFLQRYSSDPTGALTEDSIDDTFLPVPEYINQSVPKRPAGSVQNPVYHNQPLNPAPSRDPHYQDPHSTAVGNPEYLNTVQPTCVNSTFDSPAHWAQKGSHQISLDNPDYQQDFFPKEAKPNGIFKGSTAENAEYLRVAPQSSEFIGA

Row | SMILES | IC50 [1] | IC50 (KB cells)
1 | COCCNc1ccc2ncnc(Nc3ccc(F)c(Cl)c3)c2c1 [Example 3, 4-(3'-chloro-4'-fluoroanilino)-6-(2-methoxyethylamino)quinazoline] | 40 nM | 300 nM
2 | COCCNc1ccc2ncnc(Nc3ccc(F)c(F)c3)c2c1 [Example 2, 4-(3',4'-difluoroanilino)-6-(2-methoxyethylamino)quinazoline] | 300 nM | 500 nM
3 | COCCNc1ccc2ncnc(Nc3ccc(F)cc3F)c2c1 [Example 4, 4-(2',4'-difluoroanilino)-6-(2-methoxyethylamino)quinazoline] | 300 nM | 1100 nM
4 | COCCCNc1ccc2ncnc(Nc3ccc(F)c(Cl)c3)c2c1 [Example 1, 4-(3'-chloro-4'-fluoroanilino)-6-(3-methoxypropylamino)quinazoline] | 50 nM | 100 nM
